Where only a bound is given, the exact number is not on record here.

Consider eight compounds from patent EP4178959B1, “NITROGEN HETEROCYCLIC CYTOKININ DERIVATIVES, COMPOSITIONS CONTAINING THESE DERIVATIVES AND USE THEREOF” (Univerzita Palackého v Olomouci, priority 2020, dated 2022).

For one series, the system named is excised wheat leaf tips. As to the kind of experiment: Senescence inhibition on winter wheat leaf segments (chlorophyll retention). Details: species or system Triticum aestivum cv. Hereward. As to conditions: for Emax: Triticum aestivum, foliar, read-out: Activity (%) [10^-4mol.l^-1 KTHP = 100%]; for Emax / Activity (%) [10^-4mol.l^-1 KTHP = 100%]: retention of chlorophyll in excised wheat leaf tips, 96 h in the dark, at concentration with highest activity; for Concentration with highest activity: retention of chlorophyll. As to the method:
Seeds of winter wheat, Triticum aestivum cv. Hereward, were washed under running water for 24 hours and then sown on vermiculite soaked with the Knop's solution. They were placed in the grow chamber at 25 °C with a 16/8 h light period at 50 μmol.m^-2.s^-1. After 7 days, the first leaf was fully developed and the second leaf had started to grow. A tip section of the first leaf, approximately 35 mm long, was removed from 5 seedlings and trimmed slightly to a combined weight of 100 mg. The basal ends of the five leaf tips were placed in the wells of a microtiter polystyrene plate containing 150 μl of the solution of the tested compound each. The entire plate was inserted into a plastic box lined with paper tissues soaked with distilled water to prevent leaf sections from drying out. […] The absorbance of the extract was recorded at 665 nm. In addition, chlorophyll extracts from fresh leaves and leaf tips incubated in deionised water were measured. From the obtained data, the concetration with the highest activity was selected for each compound tested. Relative activity of the compound at this concentration was calculated (Table 7). […] The values shown are means of five replicates and the whole experiment was repeated twice. The compounds to be tested were dissolved in dimethylsulfoxide (DMSO) and the solution brought up to 10^-3 M with distilled water. […] The compounds listed in Table 7 can be divided into 2 groups. The first group contains "classical 6,9-disubstituted purines (KTHP as a control)" known in prior art. […] Table 9: […]

Series [1] in a line: Calcein AM cytotoxicity assay, BJ cells. The following applies: human; for CC50 at 72 h: bj fibroblasts. As to the method: (§1) All compound concentrations were examined in duplicates. […] Zero cytotoxicity is a basic prerequisite for the use of these substances in cosmetical applications. To assess the antitumor activity, the toxicity of new derivatives on panels containing cell lines of different histogenic and species origin was tested (Table 5). […] The compounds listed in Table 5 can be divided into 2 groups.
(§2) The first group contains "classical cytokinins" represented by 6-substituted purines (their effects are already known). The second group includes novel 2-fluoro-N6-substituted-9-(2-oxacycloalkyl)-9H-purine-6-amine derivatives. […] Low cytotoxicity (high IC50 value) of the compounds is the basic prerequisite for cosmetic and medical applications. […] Table 5: Cytotoxicity of novel compounds for different normal cell lines tested / IC50 (µmol/L)

A further series has as its system Zea mays seedlings. Briefly: Effect on development of Zea mays seedlings (hydroponic). Type of series: in vivo, Zea mays cv. CELLUX. As to conditions: for Root dry mass (%) [4 x 10^-8 mol.l^-1 Kin = 100%] / Shoot dry mass (%) [10^-6 mol.l^-1 Kin = 100%]: at concentration with highest activity. As to the method:
Maize seeds (Zea mays cv. CELLUX) were imbibed in tap water and germinated on a wetted filter paper. After 3 days, the germinated seedlings were transferred to aerated hydroponic tanks filled with Hoagland's nutrient solution. The plants were grown in an environmental chamber with 16 h light period (250 μE m^-2 s^-1) at 27°C and 8 h dark period at 20°C. Tested compounds diluted in DMSO were added to nutrient solution immediately when seedlings were nested in the tanks or after two additional days of cultivation. Control plants were grown in parallel with addition of corresponding amount of DMSO (up to 0.01%). Root and leaf tissues of ten plants were harvested at different time points after the application of the compounds, immediately frozen in liquid nitrogen and used for cytokinin content and transcript level analysis. Length of primary root and the first leaf were determined with ruler on sets of twelve plants, each cultivated in the independent tank (for every cytokinin application repeated ten times). Dry mass of root system and the aerial part was determined after cutting off the kernel and desiccation in dryer for two days at 60°C. […] Fig. 4) and up to 1 micromolar concentration when more seedlings were in the solution (approx. 50 seedlings per 1 liter; Fig. 5). […] Table 7: […]

For the next series, the system named is Arabidopsis thaliana. Briefly: Effect on the root proliferation of Arabidopsis thaliana. The class given is in vivo, Arabidopsis thaliana (ecotype Columbia). The following applies: for Concentration with highest activity: number of lateral roots; for Activity (%) [10^-8 mol.l^-1 Kin = 100%]: number of lateral roots (% of control), at concentration with highest activity. As to the method: Arabidopsis thaliana seeds (ecotype Columbia) were sterilized with 70% ethanol and 0.1% Triton X-100 and then washed with 70% ethanol containing 0.01% Triton X-100. Then the seeds were transferred to vertical square petri dishes (11 seeds per dish) on a solid medium consisting of MS (2.15 g/l), MES (0.5 g/l), sucrose (1 g/l), agar (11 g/l), buffered to pH 5.8, and various concentrations of tested compounds. The compounds were dissolved in DMSO, thus 0.05% DMSO was used as a control solution. After incubation for 3 days in darkness at 4°C, the seeds were germinated and grown in an environmental chamber (fluorescence light intensity 150 µE m^-2 s^-1, humidity 55%, 16 h day/8 h night, 22°C). […] The number of lateral roots was scored under a stereomicroscope. […] In addition, compounds with tetrahydropyranyl protection at N9 slightly increase the number of emerged lateral roots (Fig 3C). […] Table 6: […]

The nature of series [2]: Calcein AM cytotoxicity assay, NIH3T3 cells. The following applies: mouse; for CC50 at 72 h: nih3t3 cells. As to the method:
as §1, §2

Series [3] is described as follows: Calcein AM cytotoxicity assay, B10A.4 cells. As to conditions: mouse, Cytotoxicity IC50, B10A.4, first column headed B10A.4; for CC50 at 72 h: b10a.4 macrophages. As to the method: as §1, §2

Broadly, the IC50 is the midpoint of a concentration-inhibition curve. `Fc1nc(NCc2ccccc2)c2ncn(C3CCCCO3)c2n1` (stereo not shown) [Compound 64, 2-Fluoro-6-benzylamino-9-(tetrahydro-2H-pyran-2-yl)-9H-purine]: the Emax with excised wheat leaf tips is 110%. Also, the IC50 at 72 h in series [1] was 124 µM; in series [2] it was 128 µM; in series [3], 121 µM. Also, in the series on Zea mays seedlings, the “Root dry mass (%) [4 x 10^-8 mol.l^-1 Kin = 100%]” value (“Root dry mass (%)” below) is on record as 168.9 (± 16) %. Moreover, the “Shoot dry mass (%) [10^-6 mol.l^-1 Kin = 100%]” value (“Shoot dry mass (%)” below) in the series with Zea mays seedlings is on record as 108.9 (± 8) %. In addition, the “Concentration with highest activity” value with Zea mays seedlings (root dry mass) was 10^-7 mol.1^-1; in the series with Zea mays seedlings (shoot dry mass), 10^-6 mol.1^-1; in the series on Arabidopsis thaliana it was 10^-6 mol.l^-1. Moreover, in the series with Arabidopsis thaliana, the “Activity (%) [10^-8 mol.l^-1 Kin = 100%]” value is listed as 61.2 (± 3) %.

`Oc1cccc(CNc2nc(F)nc3c2ncn3C2CCCO2)c1` (stereo not shown) [Compound 15, 2-Fluoro-6-[(3-hydroxybenzyl)amino]-9-(tetrahydrofuran-2-yl)-9H-purine]: the Emax in the series with excised wheat leaf tips was 133%. The IC50 at 72 h in series [1], in series [2] and in series [3] was greater than 167 µM throughout. For the same compound, in the series with Zea mays seedlings, the “Root dry mass (%)” value is 201.4 (± 22) %. Besides, the “Shoot dry mass (%)” value in the series with Zea mays seedlings is 124.3 (± 8) %. Besides, the “Concentration with highest activity” value in the series with Zea mays seedlings (root dry mass) is 10^-7 mol.1^-1; with Zea mays seedlings (shoot dry mass), 10^-6 mol.1^-1; with Arabidopsis thaliana, 10^-5 mol.l^-1. Moreover, the “Activity (%) [10^-8 mol.l^-1 Kin = 100%]” value with Arabidopsis thaliana is 24.8 (± 4) %.

One may read the CC50 as the concentration giving 50% cytotoxicity. Consider `C/C(=C/CNc1nc(F)nc2c1ncn2C1CCCCO1)CO` (stereo not shown) [Compound 71], for which the “Concentration with highest activity” value in the series with excised wheat leaf tips is on record as 10^-4 mol.l^-1; in the series on Zea mays seedlings (root dry mass) it was 10^-7 mol.1^-1; with Zea mays seedlings (shoot dry mass), 10^-6 mol.1^-1; in the series with Arabidopsis thaliana, 10^-6 mol.l^-1. In addition, in the series with excised wheat leaf tips, the “Activity (%) [10^-4mol.l^-1 KTHP = 100%]” value was 113 (± 18) %. The CC50 at 72 h in series [1], in series [2] and in series [3] was greater than 167 µM in each case. The “Root dry mass (%)” value in the series with Zea mays seedlings is given as 172.5 (± 14) %. In addition, the “Shoot dry mass (%)” value in the series on Zea mays seedlings is 111.1 (± 6) %. In addition, the “Activity (%) [10^-8 mol.l^-1 Kin = 100%]” value in the series on Arabidopsis thaliana is listed as 71.8 (± 7) %.

Take `COc1cccc(CNc2nc(F)nc3c2ncn3C2CCCO2)c1` (stereo not shown) [Compound 18]: the “Concentration with highest activity” value is given as 10^-4 mol.l^-1 with excised wheat leaf tips, 10^-7 mol.1^-1 with Zea mays seedlings (root dry mass), 10^-6 mol.1^-1 in the series on Zea mays seedlings (shoot dry mass) and 10^-5 mol.l^-1 in the series on Arabidopsis thaliana. The “Activity (%) [10^-4mol.l^-1 KTHP = 100%]” value with excised wheat leaf tips was 175.8 (± 10) %. In addition, the CC50 at 72 h in series [1], in series [2] and in series [3] was greater than 167 µM throughout. Besides, the “Root dry mass (%)” value in the series on Zea mays seedlings was 240.6 (± 22) %. In the series on Zea mays seedlings, the “Shoot dry mass (%)” value is listed as 148.2 (± 8) %. Further, the “Activity (%) [10^-8 mol.l^-1 Kin = 100%]” value with Arabidopsis thaliana was 28.6 (± 2) %.

`COc1ccccc1CNc1nc(F)nc2c1ncn2C1CCCO1` (stereo not shown) [Compound 17, 2-Fluoro-6-[(2-methoxybenzyl)amino]-9-(tetrahydrofuran-2-yl)-9H-purine]: in the series with excised wheat leaf tips, the Emax stood at 104%. The concentration for half-maximal inhibition (IC50) at 72 h in series [1], in series [2] and in series [3] was greater than 167 µM in each case. Besides, the “Root dry mass (%)” value in the series on Zea mays seedlings is listed as 241.5 (± 19) %. Further, the “Shoot dry mass (%)” value in the series with Zea mays seedlings is 139.8 (± 7) %. The “Concentration with highest activity” value in the series with Zea mays seedlings (root dry mass) is 10^-7 mol.1^-1; in the series on Zea mays seedlings (shoot dry mass), 10^-6 mol.1^-1; in the series with Arabidopsis thaliana, 10^-5 mol.l^-1. The “Activity (%) [10^-8 mol.l^-1 Kin = 100%]” value in the series with Arabidopsis thaliana was 30.7 (± 7) %.

On to `CC(CO)CCNc1nc(F)nc2c1ncn2C1CCCCO1` (stereo not shown) [Compound 72], for which the “Concentration with highest activity” value is reported as 10^-4 mol.l^-1 in the series on excised wheat leaf tips, 10^-7 mol.1^-1 with Zea mays seedlings (root dry mass), 10^-6 mol.1^-1 in the series on Zea mays seedlings (shoot dry mass) and 10^-6 mol.l^-1 in the series on Arabidopsis thaliana. In addition, in the series on excised wheat leaf tips, the “Activity (%) [10^-4mol.l^-1 KTHP = 100%]” value is recorded as 103 (± 7) %. The CC50 at 72 h in series [1], in series [2] and in series [3] was greater than 167 µM throughout. Further, the “Root dry mass (%)” value in the series on Zea mays seedlings was 161.3 (± 21) %. In addition, the “Shoot dry mass (%)” value in the series on Zea mays seedlings is listed as 104.8 (± 7) %. In addition, the “Activity (%) [10^-8 mol.l^-1 Kin = 100%]” value with Arabidopsis thaliana is listed as 68.5 (± 2) %.

On to `Fc1nc(NCc2ccco2)c2ncn(C3CCCCO3)c2n1` (stereo not shown) [Compound 57, 2-Fluoro-6-furfurylamino-9-(tetrahydro-2H-pyran-2-yl)-9H-purine], for which the Emax in the series with excised wheat leaf tips is 111%. Also, the values for the IC50 at 72 h in series [1], in series [2] and in series [3] were 132 µM, 138 µM and 149 µM, respectively. The “Root dry mass (%)” value in the series with Zea mays seedlings is given as 183.9 (± 24) %. Further, the “Shoot dry mass (%)” value with Zea mays seedlings is recorded as 112.8 (± 11) %. The “Concentration with highest activity” value in the series with Zea mays seedlings (root dry mass) is listed as 10^-7 mol.1^-1; in the series with Zea mays seedlings (shoot dry mass) it was 10^-6 mol.1^-1; in the series with Arabidopsis thaliana it was 10^-6 mol.l^-1. For the same compound, in the series with Arabidopsis thaliana, the “Activity (%) [10^-8 mol.l^-1 Kin = 100%]” value is listed as 68.4 (± 8) %.

Regarding `Oc1cc(Cl)cc(CNc2nc(F)nc3c2ncn3C2CCCO2)c1` (stereo not shown) [Compound 27], the “Root dry mass (%)” value in the series with Zea mays seedlings was 194.5 (± 18) %. The “Shoot dry mass (%)” value with Zea mays seedlings is on record as 116.3 (± 7) %. Moreover, the “Concentration with highest activity” value in the series with Zea mays seedlings (root dry mass) is listed as 10^-7 mol.1^-1; in the series on Zea mays seedlings (shoot dry mass), 10^-6 mol.1^-1; in the series on Arabidopsis thaliana, 10^-5 mol.l^-1. The “Activity (%) [10^-8 mol.l^-1 Kin = 100%]” value in the series on Arabidopsis thaliana is recorded as 45.7 (± 6) %.
